Reference: publication PMC6214618, “Multimodal Ligand Binding Studies of Human and Mouse G-Coupled Taste Receptors to Correlate Their Species-Specific Sweetness Tasting Properties” (Molecules : A Journal of Synthetic Chemistry and Natural …, 2018)
pEC50, pKd: −log10 of the molar value. Peptide text beside a SMILES is read from it.

Assays:
human T1R2 ATD [1] = target: T1, human T1R2 ATD (Homo sapiens, UniProt Q8TE23); test: Circular dichroism (CD) spectroscopy of ligand binding, human T1R2 ATD; details: for change in CD profile / ellipticity upon ligand addition: His-hT1R2 ATD, 209 and 219 nm; for pKd: measured by CD, 25 °C, 4.5 μM ATD protein, nonlinear regression at fixed wavelength
T1 construct: or Ser25-Thr489 in the 8xHis-Tag; made in house
T1 sequence (Q8TE23 25-489): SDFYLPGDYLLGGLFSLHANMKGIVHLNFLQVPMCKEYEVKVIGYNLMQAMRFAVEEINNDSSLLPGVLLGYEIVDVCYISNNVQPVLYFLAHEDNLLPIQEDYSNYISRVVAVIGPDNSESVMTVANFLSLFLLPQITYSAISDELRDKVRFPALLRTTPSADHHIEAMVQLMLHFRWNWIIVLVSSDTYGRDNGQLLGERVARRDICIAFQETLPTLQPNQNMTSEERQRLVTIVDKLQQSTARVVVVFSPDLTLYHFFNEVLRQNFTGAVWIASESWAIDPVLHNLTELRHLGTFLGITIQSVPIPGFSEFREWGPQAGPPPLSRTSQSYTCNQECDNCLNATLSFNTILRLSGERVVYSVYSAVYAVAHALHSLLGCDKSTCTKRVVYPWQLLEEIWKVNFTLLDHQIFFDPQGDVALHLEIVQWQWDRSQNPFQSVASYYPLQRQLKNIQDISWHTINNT
Description: CD spectra were recorded at 25 °C on an Model 202SF circular dichroism spectrometer (Aviv, Lakewood, NY, USA) equipped with a Peltier temperature control. Samples were added to a 0.01 cm path length quartz cuvette with a concentration of the ATD (from human and mouse) of about 0.3 mg/mL (4.5 μM) in 10 mM Tris-HCl, 150 mM NaCl, 10% glycerol, pH 7.4. Data was collected every 1 nm with an averaging time of 5 s. The spectral bandwidth was 1 nm. Spectra were corrected for buffer and ligands contributions and converted to mean ellipticity in deg cm^2·dmol^−1. The content of α-helix was computed using the deconvolution program from Chen et al.. […] The KD was calculated by analyzing CD data at a fixed wavelength versus ligand concentration using a nonlinear regression method (see Table 1). MSG was used as a negative control.

mouse T1R2 ATD [2] = target: T2, mouse T1R2 ATD (Mus musculus, UniProt Q925I4); test: Circular dichroism (CD) spectroscopy of ligand binding, mouse T1R2 ATD; details: mouse His-T1R2 ATD, saturating concentrations (neotame up to 500 μM)
T2 construct: The mouse 8xHis-Tev-ATD-mT1R2 construct ranged from residues Gly2-Pro466; made in house
T2 sequence (Q925I4 2-465 limits assumed): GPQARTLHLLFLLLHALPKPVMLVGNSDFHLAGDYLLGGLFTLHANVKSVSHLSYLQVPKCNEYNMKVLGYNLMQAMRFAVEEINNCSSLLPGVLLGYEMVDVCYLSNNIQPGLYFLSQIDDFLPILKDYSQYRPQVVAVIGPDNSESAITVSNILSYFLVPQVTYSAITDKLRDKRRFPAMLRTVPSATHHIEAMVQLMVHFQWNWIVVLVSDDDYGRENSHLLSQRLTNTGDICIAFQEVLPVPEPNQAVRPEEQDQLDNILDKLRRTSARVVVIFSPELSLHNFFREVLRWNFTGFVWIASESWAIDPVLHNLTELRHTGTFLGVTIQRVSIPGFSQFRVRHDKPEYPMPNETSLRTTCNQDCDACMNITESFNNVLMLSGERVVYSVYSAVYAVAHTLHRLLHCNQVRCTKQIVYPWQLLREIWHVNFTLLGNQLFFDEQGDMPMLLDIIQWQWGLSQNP
Description: Data was collected every 1 nm with an averaging time of 5 s. The spectral bandwidth was 1 nm. Spectra were corrected for buffer and ligands contributions and converted to mean ellipticity in deg cm^2·dmol^−1. The content of α-helix was computed using the deconvolution program from Chen et al.. […] The KD was calculated by analyzing CD data at a fixed wavelength versus ligand concentration using a nonlinear regression method (see Table 1). MSG was used as a negative control.

human T1R2 ATD [3] = target: T1, human T1R2 ATD; test: Intrinsic fluorescence spectroscopy, human T1R2 ATD; assay type: binding; details: excitation 280 nm; for change in intrinsic fluorescence intensity: human T1R2 ATD, ligand 0–64 μM
Description: (§1) Samples were prepared in the same way as for the CD experiments. Experiments were performed at 25 °C on Carey Eclipse instrument (Agilent, Santa Clara, CA, USA). Spectra were subtracted from the buffer ± ligand backgrounds for presentation. The curves at 340 nm were the best fits of the data obtained by a regression method using Microsoft Excel software (Microsoft, Redmont, WA, USA).

mouse T1R2 ATD [4] = target: T2, mouse T1R2 ATD; test: Intrinsic fluorescence spectroscopy, mouse T1R2 ATD; assay type: binding; details: excitation 280 nm
Description: as §1

human T1R2 ATD [5] = target: T3, human T1R2 ATD (Homo sapiens, UniProt Q8TE23); test: Saturation transfer difference NMR (STD-NMR) binding assay; details: neotame 3–10 mM at 27 °C; MSG at 7–37 °C
T3 construct: The human constructs ranged from residues Asn24-Met494 for human (ATD-hT1R2) in the SUMO fusion; His (N); TEV cleavage site (N); made in house
T3 sequence (Q8TE23 24-494): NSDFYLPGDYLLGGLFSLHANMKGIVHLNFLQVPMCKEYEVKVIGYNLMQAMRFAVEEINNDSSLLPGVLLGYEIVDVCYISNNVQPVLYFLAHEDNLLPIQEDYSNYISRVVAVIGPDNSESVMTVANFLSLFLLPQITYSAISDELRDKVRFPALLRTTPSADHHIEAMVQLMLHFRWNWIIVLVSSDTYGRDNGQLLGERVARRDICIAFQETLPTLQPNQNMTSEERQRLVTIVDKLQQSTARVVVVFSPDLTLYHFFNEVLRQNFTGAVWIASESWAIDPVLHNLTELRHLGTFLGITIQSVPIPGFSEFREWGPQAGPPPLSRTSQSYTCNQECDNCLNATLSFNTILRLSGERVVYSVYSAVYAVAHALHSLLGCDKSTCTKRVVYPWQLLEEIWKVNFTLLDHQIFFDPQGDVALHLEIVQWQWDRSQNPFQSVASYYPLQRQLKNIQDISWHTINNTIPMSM
Description: The ligand binding activity of ATD-T1R2 for all ligands was confirmed with a NMR-STD binding assay as previously described. Aliquots of the pure labeled SUMO-T1R2 protein were incubated with desired titrating ligands at 0.5–20 fold molar excess and concentrated to a final concentration of ~0.05 mM in 10 mM phosphate buffer (pH 7.4) containing 150 mM NaCl, 2.7 mM KCl, 5 mM DTT, 5x protease inhibitor (Roche) and 0.05% NaN3. Monosodium glutamate (MSG, non-sweet molecule) was used as a negative control. NMR data were collected on a VNMRS spectrometer (Varian, Palo Alto, CA, USA) operating at 800 MHz and equipped with a cryogenic probe. STD-NMR data collection and analysis was carried out as previously described.

pKd (human T1R2 ATD [1]) | pEC50 (mouse T1R2 ATD [4]; signal at 336 nm, read-out: half-maximal value of fluorescence intensity decrease) | pEC50 (human T1R2 ATD [3]; h-T1R2 ATD, signal at 336 nm, read-out: ligand concentration at half of the maximal value of fluorescence change) | Compound | change in CD profile / ellipticity upon ligand addition (human T1R2 ATD [1]) | change in ellipticity upon ligand addition (mouse T1R2 ATD [2]) | change in intrinsic fluorescence intensity (human T1R2 ATD [3]) | change in intrinsic fluorescence intensity (mouse T1R2 ATD [4]) | STD signal / binding (human T1R2 ATD [5])
 |  |  | N[C@@H](CCC(=O)O)C(=O)[O-].[Na+] [MSG, monosodium glutamate] | no change | no change in ellipticity | no change in intrinsic fluorescence intensity | did not change the intrinsic fluorescence intensity | no STD signal
< 3.52 |  |  | COC(=O)[C@H](Cc1ccccc1)NC(=O)[C@@H](N)CC(=O)O [Aspartame] (HELM PEPTIDE1{D.F.[CO[*:1]]}$$$$V2.0) |  |  |  |  | 
4.40 | 5.10 |  | OC[C@H]1O[C@@](CO)(O[C@H]2O[C@H](CO)[C@@H](O)[C@H](O)[C@H]2O)[C@@H](O)[C@@H]1O [Sucrose] | small decrease in ellipticity | small decrease in ellipticity | did not change the fluorescence intensity | decrease in the fluorescence intensity | 
3.30 |  |  | N[C@H](Cc1c[nH]c2ccccc12)C(=O)O [D-Tryptophan] |  |  |  |  | 
4.00 |  |  | CC1=CC(=O)NS(=O)(=O)O1 [Acetasulfame] |  |  |  |  | 
4.40 |  | 5.30 | OC[C@H]1O[C@H](O[C@]2(CCl)O[C@H](CCl)[C@@H](O)[C@@H]2O)[C@H](O)[C@@H](O)[C@H]1Cl [Sucralose] |  |  | decreasing fluorescence intensity |  | 
